Reference: the NIST ThermoML archive (doi:10.1016/j.jct.2005.07.009)
± gives the expanded uncertainty stated by the source.

Experiments:
[1] = excess molar enthalpy (molar enthalpy of mixing); xn = mol fraction of the nth substance listed; settings: 298.15 K, 101 kPa, Liquid
[2] = xn = mol fraction of the nth substance listed; settings: 298.15 K, 101 kPa, Liquid, Vibrating tube method

BrCCCBr [1,3-dibromopropane] + CCOC=O
Settings	excess molar enthalpy [kcal/mol]	mass density [kg/m3]
[1], x2 = 0.0727	0.0421 ± 0.00127	–
[1], x2 = 0.1458	0.0721 ± 0.00198	–
[1], x2 = 0.2104	0.0959 ± 0.00263	–
[1], x2 = 0.2886	0.113 ± 0.00311	–
[1], x2 = 0.3588	0.123 ± 0.00311	–
[1], x2 = 0.4253	0.126 ± 0.00335	–
[1], x2 = 0.4828	0.125 ± 0.00335	–
[1], x2 = 0.5358	0.122 ± 0.00311	–
[1], x2 = 0.5812	0.116 ± 0.00311	–
[1], x2 = 0.6324	0.109 ± 0.00287	–
[1], x2 = 0.6925	0.0965 ± 0.00263	–
[1], x2 = 0.7529	0.0811 ± 0.0022	–
[1], x2 = 0.8177	0.062 ± 0.00174	–
[1], x2 = 0.882	0.0414 ± 0.00124	–
[1], x2 = 0.9449	0.021 ± 0.000765	–
[2], x2 = 0.0717	–	1908.92 ± 1.4
[2], x2 = 0.1454	–	1844.11 ± 1.6
[2], x2 = 0.2149	–	1781.28 ± 1.8
[2], x2 = 0.2791	–	1721.26 ± 1.9
[2], x2 = 0.3468	–	1656.48 ± 2.1
[2], x2 = 0.4099	–	1594.33 ± 2.2
[2], x2 = 0.4685	–	1534.98 ± 2.3
[2], x2 = 0.5893	–	1407.8 ± 2.5
[2], x2 = 0.6459	–	1345.63 ± 2.5
[2], x2 = 0.6988	–	1285.95 ± 2.6
[2], x2 = 0.7521	–	1224.47 ± 2.6
[2], x2 = 0.8028	–	1164.26 ± 2.6
[2], x2 = 0.8548	–	1101.12 ± 2.5
[2], x2 = 0.9056	–	1037.67 ± 2.5

BrCCCCCCBr [1,6-dibromohexane] + CCCC(=O)OCC
Settings	excess molar enthalpy [kcal/mol]	mass density [kg/m3]
[1], x2 = 0.0629	0.00655 ± 0.000478	–
[1], x2 = 0.1341	0.0105 ± 0.00055	–
[1], x2 = 0.2059	0.0133 ± 0.000598	–
[1], x2 = 0.2734	0.014 ± 0.000621	–
[1], x2 = 0.3411	0.0136 ± 0.000598	–
[1], x2 = 0.4017	0.0124 ± 0.000574	–
[1], x2 = 0.4524	0.0103 ± 0.00055	–
[1], x2 = 0.4952	0.00796 ± 0.000502	–
[1], x2 = 0.5312	0.00562 ± 0.000478	–
[1], x2 = 0.5662	0.00308 ± 0.00043	–
[1], x2 = 0.6022	0.000191 ± 0.000382	–
[1], x2 = 0.6161	-0.000359 ± 0.000382	–
[1], x2 = 0.6589	-0.00213 ± 0.000406	–
[1], x2 = 0.7115	-0.00304 ± 0.00043	–
[1], x2 = 0.7699	-0.00366 ± 0.00043	–
[1], x2 = 0.8324	-0.00347 ± 0.00043	–
[1], x2 = 0.8956	-0.00213 ± 0.00043	–
[1], x2 = 0.9514	-0.000884 ± 0.000406	–
[2], x2 = 0.0741	–	1554.45 ± 2.5
[2], x2 = 0.1407	–	1511.27 ± 2.6
[2], x2 = 0.2026	–	1470.35 ± 2.6
[2], x2 = 0.2669	–	1427.12 ± 2.6
[2], x2 = 0.3292	–	1384.45 ± 2.6
[2], x2 = 0.4493	–	1300.05 ± 2.6
[2], x2 = 0.5934	–	1194.98 ± 2.6
[2], x2 = 0.6267	–	1170.08 ± 2.6
[2], x2 = 0.6854	–	1125.55 ± 2.6
[2], x2 = 0.7302	–	1091.1 ± 2.5
[2], x2 = 0.7843	–	1048.89 ± 2.5
[2], x2 = 0.8939	–	961.41 ± 2.4

BrCCCCCBr [1,5-dibromopentane] + CCOC(C)=O
Settings	excess molar enthalpy [kcal/mol]	mass density [kg/m3]
[1], x2 = 0.0775	0.0259 ± 0.000884	–
[1], x2 = 0.1619	0.0431 ± 0.00129	–
[1], x2 = 0.2431	0.0561 ± 0.0016	–
[1], x2 = 0.3197	0.0639 ± 0.00179	–
[1], x2 = 0.3909	0.0676 ± 0.00186	–
[1], x2 = 0.4536	0.0674 ± 0.00186	–
[1], x2 = 0.5079	0.0658 ± 0.00184	–
[1], x2 = 0.5103	0.0652 ± 0.00182	–
[1], x2 = 0.5486	0.0622 ± 0.00174	–
[1], x2 = 0.5612	0.062 ± 0.00174	–
[1], x2 = 0.5934	0.0591 ± 0.00167	–
[1], x2 = 0.6025	0.0577 ± 0.00163	–
[1], x2 = 0.6413	0.053 ± 0.00153	–
[1], x2 = 0.6919	0.0458 ± 0.00134	–
[1], x2 = 0.7451	0.0375 ± 0.00115	–
[1], x2 = 0.7998	0.0284 ± 0.000932	–
[1], x2 = 0.8546	0.0198 ± 0.000741	–
[1], x2 = 0.9082	0.012 ± 0.000574	–
[1], x2 = 0.9563	0.00528 ± 0.000478	–
[2], x2 = 0.0866	–	1642.62 ± 2.7
[2], x2 = 0.1624	–	1595.36 ± 2.8
[2], x2 = 0.2251	–	1554.67 ± 2.8
[2], x2 = 0.2991	–	1504.62 ± 2.8
[2], x2 = 0.3623	–	1460.11 ± 2.9
[2], x2 = 0.4225	–	1416.21 ± 2.9
[2], x2 = 0.5458	–	1321 ± 2.9
[2], x2 = 0.6601	–	1225.85 ± 2.8
[2], x2 = 0.765	–	1131.91 ± 2.7
[2], x2 = 0.8611	–	1039.57 ± 2.6
[2], x2 = 0.9561	–	941.92 ± 2.4
